The record followed here is ChEMBL document CHEMBL4725292 (J Med Chem, 2020).

Some results are limits rather than exact numbers.

The test system of one data set is THP-1. The data set is described as follows: Antiproliferative activity against human THP-1 cells after 72 hrs by cell titer glo assay. The class given is functional, cell-based. The conditions noted are these: THP-1, 72 h.
In data set [1] the test system is Blood. Description: Inhibition of LPS-induced IL6 production in human whole blood preincubated for 30 mins followed by LPS addition and measured after overnight incubation by mesoscale assay. The class given is functional, tissue-based.
Another data set has as its system HL-60. Description: Antiproliferative activity against human HL-60 cells after 72 hrs by cell titer glo assay. The class given is functional, cell-based. The conditions noted are these: HL-60, 72 h. (ATP-based viability assays read luminescence as a measure of living cells.)
Another data set deals with MV4-11. Description: Antiproliferative activity against human MV4-11 cells after 72 hrs by cell titer glo assay. The conditions noted are these: MV4-11, 72 h. The class given is functional, cell-based.
Data set [2] concerns Blood. Description: Inhibition of LPS-induced TNFalpha production in human whole blood preincubated for 30 mins followed by LPS addition and measured after overnight incubation by mesoscale assay. The class given is functional, tissue-based.
Data set [3] has as its system Blood. Description: Inhibition of LPS-induced MCP1 production in human whole blood preincubated for 30 mins followed by LPS addition and measured after overnight incubation by mesoscale assay. The class given is functional, tissue-based.
In data set [4] the target is Bromodomain-containing protein 4 (Homo sapiens, UniProt O60885, Y390A). Description: Displacement of Alexa Fluor 647 labelled ligand from His6-thr-tagged BRD4 BD1 (1 to 477 residues)/BD2 Y390A mutant (unknown origin) after 30 mins by TR-FRET assay. (Time-resolved FRET reads energy transfer from a long-lived donor to a nearby acceptor.)
Data set [5] is described as follows: Permeability of the compound in pH 7.4 phosphate buffer measured after 3 hrs by artificial membrane permeability assay based HPLC analysis. The class given is ADME. The conditions noted are these: for Papp at 3 h: PAMPA, pH 7.4, read-out: permeability. In general terms: PAMPA measures passive passage across an artificial lipid membrane.
Data set [6] can be described thus: Lipophilicity, logD of the compound at pH 7.4 by chromatographic method. The class given is physicochemical. The conditions noted are these: buffer.
Data set [7] can be described thus: Inhibition of LPS-induced MCP1 production in PBMC (unknown origin). The class given is functional, tissue-based.
In data set [8] the target is Bromodomain-containing protein 4 (Homo sapiens, UniProt O60885, Y97A). The data set is described as follows: Displacement of Alexa Fluor 647 labelled ligand from His6-tagged BRD4 BD2 (1 to 477 residues)/BD1 Y97A mutant (unknown origin) after 30 mins by TR-FRET assay.
The nature of data set [9]: Selectivity index, […] for His6-thr-tagged BRD4 BD1 (1 to 477 residues)/BD2 Y390A mutant (unknown origin) to pIC50 for LPS-induced MCP1 production in PBMC (unknown origin).
Data set [10] has as its target T1, ATPase family AAA domain-containing protein 2 (Homo sapiens, UniProt Q6PL18).
T1 sequence (Q6PL18 whole entry): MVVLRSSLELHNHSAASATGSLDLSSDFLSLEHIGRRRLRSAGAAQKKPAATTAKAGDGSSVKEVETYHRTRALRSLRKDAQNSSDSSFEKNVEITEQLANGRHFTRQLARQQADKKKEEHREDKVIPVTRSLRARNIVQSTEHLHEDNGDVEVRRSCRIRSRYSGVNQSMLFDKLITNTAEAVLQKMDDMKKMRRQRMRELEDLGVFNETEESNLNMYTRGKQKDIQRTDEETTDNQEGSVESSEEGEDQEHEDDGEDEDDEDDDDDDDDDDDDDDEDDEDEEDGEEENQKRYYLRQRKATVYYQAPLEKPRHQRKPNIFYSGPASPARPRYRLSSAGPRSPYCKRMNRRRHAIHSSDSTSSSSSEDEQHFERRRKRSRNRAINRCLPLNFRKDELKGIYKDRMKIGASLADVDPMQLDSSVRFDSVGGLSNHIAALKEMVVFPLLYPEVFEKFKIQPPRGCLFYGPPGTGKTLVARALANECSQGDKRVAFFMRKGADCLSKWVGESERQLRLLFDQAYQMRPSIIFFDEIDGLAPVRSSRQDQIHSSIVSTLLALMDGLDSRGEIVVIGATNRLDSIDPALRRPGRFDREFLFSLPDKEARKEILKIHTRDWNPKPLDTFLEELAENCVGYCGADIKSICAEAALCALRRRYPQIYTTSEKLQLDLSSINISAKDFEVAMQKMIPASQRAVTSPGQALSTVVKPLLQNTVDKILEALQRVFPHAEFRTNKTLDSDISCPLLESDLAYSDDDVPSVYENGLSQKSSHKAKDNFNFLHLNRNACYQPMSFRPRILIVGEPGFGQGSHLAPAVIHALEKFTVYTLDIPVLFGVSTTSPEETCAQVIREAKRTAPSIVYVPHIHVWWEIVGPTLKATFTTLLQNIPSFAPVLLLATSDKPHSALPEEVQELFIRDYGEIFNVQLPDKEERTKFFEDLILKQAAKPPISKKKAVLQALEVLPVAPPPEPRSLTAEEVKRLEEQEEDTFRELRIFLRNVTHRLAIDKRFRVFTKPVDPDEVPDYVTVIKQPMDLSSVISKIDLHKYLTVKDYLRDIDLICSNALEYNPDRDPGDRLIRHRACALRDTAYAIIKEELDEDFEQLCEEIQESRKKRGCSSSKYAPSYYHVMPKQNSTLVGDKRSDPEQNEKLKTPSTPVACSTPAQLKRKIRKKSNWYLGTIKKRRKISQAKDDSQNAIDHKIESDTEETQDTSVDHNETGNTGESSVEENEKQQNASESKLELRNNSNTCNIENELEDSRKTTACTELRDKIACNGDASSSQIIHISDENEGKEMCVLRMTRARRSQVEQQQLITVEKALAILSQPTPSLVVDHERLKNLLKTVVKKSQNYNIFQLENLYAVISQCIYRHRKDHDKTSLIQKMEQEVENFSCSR
The data set is described as follows: Inhibition of ATAD2 (unknown origin) by TR-FRET assay.

Data set [11] concerns Bromodomain-containing protein 4 (Homo sapiens), O60885 [UNDEFINED MUTATION]. The data set is described as follows: Selectivity index, […] for His6-thr-tagged BRD4 BD1 (1 to 477 residues)/BD2 Y390A mutant (unknown origin) to pIC50 for His6-tagged BRD4 BD2 (1 to 477 residues)/BD1 Y97A mutant (unknown origin).

As usually defined, the IC50 is the concentration at which inhibition is half-maximal. For orientation: chromatographic logD means a lipophilicity value derived from retention on a column. Read a low chromatographic logD as a more hydrophilic compound. The term logD denotes the decadic logarithm of the distribution of all forms, ionised or not, between an organic phase and buffer at a given pH. A higher logD goes with a more lipophilic compound.

For `COc1cc2c(cc1-c1c(C)noc1C)ncc1[nH]c(=O)n([C@H](C)c3ccccn3)c12`, the IC50 in the data set with THP-1 amounted to 0.134 µM; with Blood [1], 1.03 µM; in the data set on HL-60, 0.195 µM; in the data set with MV4-11, 0.127 µM; in the data set on Blood [2], 0.38 µM; in the data set with Blood [3], 0.3 µM.

In the case of `Cc1cc2c(-c3ccco3)cnc(N[C@@H]3CCNC[C@H]3C(=O)NC3CCCCC3)c2[nH]c1=O`, the IC50 is 0.02 µM in data set [4], 0.2 µM in data set [7] and 12.6 µM in [8]. In data set [5] (artificial membrane, pH 7.4, 3 h, 3 h), this molecule displayed a permeability of 1.9 ×10⁻⁶ cm/s. The molecule also had a chromatographic logD in data set [6] of 3.12. Further, the “Selectivity Index” value in data set [9] was 10.

Consider `CO[C@@H](C)CNC(=O)[C@@H]1CNCC[C@H]1Nc1nccc2cc(C)c(=O)[nH]c12` (mixture of isomers), for which the IC50 in data set [4] was 7.94 µM; in data set [10], greater than 39.8 µM; in data set [8] it was 31.6 µM. In data set [6], this molecule showed a chromatographic logD of 1.08. The Selectivity Index in data set [11] turned out to be 4.

On to `Cc1cc2cccc(N[C@@H]3CCNC[C@H]3C(=O)NC3CCCCC3)c2[nH]c1=O` (racemic), for which the results for the IC50 in data set [4] and in data set [8] were 3.16 µM and 31.6 µM, respectively. Moreover, the Papp at 3 h in data set [5] was less than 0.3 ×10⁻⁶ cm/s. The molecule further had a chromatographic logD in data set [6] of 2.52. In addition, the Selectivity Index in [11] was 10.

With `Cc1cc2c(-c3ccco3)cnc(N[C@@H]3CCNC[C@H]3C(=O)NC3CCCCC3)c2[nH]c1=O` (racemic), the figures for the IC50 in [4] and in [8] were 0.0398 µM and 25.1 µM, respectively. The Papp at 3 h in data set [5] is 3.8 ×10⁻⁶ cm/s. The logD in [6] worked out at 3.14.

Consider `Cc1cc2ccnc(N[C@@H]3CCNC[C@H]3C(=O)NC3CCCCC3)c2[nH]c1=O` (racemic), for which the results for the IC50 in data set [4], in data set [10] and in data set [8] were 0.794 µM, greater than 39.8 µM and greater than 50.1 µM, respectively. Moreover, the Papp at 3 h in data set [5] was less than 0.3 ×10⁻⁶ cm/s. This molecule displayed a chromatographic logD in [6] of 2.03. This molecule yielded a Selectivity Index in [11] greater than 60.

In the case of `Cc1cc2c(-c3ccco3)ccc(N[C@@H]3CCNC[C@H]3C(=O)NC3CCCCC3)c2[nH]c1=O` (racemic), the results for the IC50 in [4] and in [8] were 0.316 µM and 15.8 µM, respectively. Besides, in data set [5], the Papp at 3 h is less than 1 ×10⁻⁶ cm/s. This molecule also registered a chromatographic logD in data set [6] of 3.66. This molecule also showed a Selectivity Index in data set [11] of 50.

Regarding `Cc1cc2ccnc(N[C@@H]3CCNC[C@H]3C(=O)NC3CCCC3)c2[nH]c1=O` (relative stereo), the values for the concentration for half-maximal inhibition (IC50) in data set [4], in data set [10] and in data set [8] were 2.51 µM, greater than 39.8 µM and 39.8 µM, respectively. In data set [6], the chromatographic logD was 1.87. For the same molecule, the Selectivity Index in data set [11] came out at 15.

For `Cc1cc2ccnc(N[C@@H]3CCNC[C@@H]3C(=O)NC3CCCCC3)c2[nH]c1=O` (relative stereo), the figures for the IC50 in data set [4], in data set [10] and in data set [8] were 5.01 µM, greater than 39.8 µM and greater than 50.1 µM, respectively. In [6], this molecule came in with a chromatographic logD of 1.88. For the same molecule, the Selectivity Index in data set [11] was greater than 10.

As to `Cc1cc2ccnc(N[C@@H]3CCNC[C@H]3C(=O)N[C@H](C)C(C)C)c2[nH]c1=O` (relative stereo), the IC50 in data set [4] is 5.01 µM; in data set [10] it was greater than 39.8 µM; in data set [8], greater than 50.1 µM. The molecule further displayed a chromatographic logD in data set [6] of 1.89. This molecule had a Selectivity Index in data set [11] greater than 10.
